# Test results as given in ChEMBL document CHEMBL1146854, “Estimation of the hydrophobicity of 2,4-diphenyl-1,3-oxazoline analogs and QSAR analysis of their ovicidal activity against Tetranychus [corrected] urticae” (Bioorg Med Chem Lett, 2006).
# Tested on: not listed separately
# Assay: Partition coefficient, log P of the compound
# Format: physicochemical
# Conditions: octanol/water
row,Compound,logP
1,Clc1ccc(C2=NC(c3ccccc3)CO2)cc1 (stereo unspecified),4.48
2,Fc1cccc(Cl)c1C1=NC(c2ccccc2)CO1 (stereo unspecified),3.45
3,Cc1cccc(C2=NC(c3ccccc3)CO2)c1 (stereo unspecified),4.11
4,Fc1cccc(Cl)c1-c1ncco1,1.89
5,Clc1cccc(C2=NC(c3ccccc3)CO2)c1Cl (stereo unspecified),4.28
6,CCSc1ccccc1C1=NC(c2ccccc2)CO1 (stereo unspecified),4.04
7,Fc1ccccc1C1=NC(c2ccccc2)CO1 (stereo unspecified),3.51
8,Ic1ccccc1-c1ncco1,2.3
9,COc1ccccc1C1=NC(c2ccccc2)CO1 (stereo unspecified),3.76
10,Cc1cccc(C)c1-c1ncco1,2.21
11,Fc1cccc(F)c1-c1ncco1,1.45
12,COc1ccc(C2=NC(c3ccccc3)CO2)cc1 (stereo unspecified),3.78
13,Clc1cccc(C2=NC(c3ccccc3)CO2)c1 (stereo unspecified),4.44
14,Cc1ccccc1C1=NC(c2ccccc2)CO1 (stereo unspecified),3.68
15,Brc1ccccc1C1=NC(c2ccccc2)CO1 (stereo unspecified),3.69
16,Ic1ccccc1C1=NC(c2ccccc2)CO1 (stereo unspecified),3.86

row,Compound,logP
1,Clc1ccccc1C1=NC(c2ccccc2)CO1 (stereo unspecified),3.56
2,Cc1ccc(C2=NC(c3ccccc3)CO2)cc1 (stereo unspecified),4.11
3,CCOc1ccccc1C1=NC(c2ccccc2)CO1 (stereo unspecified),4.22
4,c1ccc(C2=NC(c3ccccc3)CO2)cc1 (stereo unspecified),3.56
5,O=[N+]([O-])c1ccccc1-c1ncco1,1.27
6,Clc1cccc(Cl)c1C1=NC(c2ccccc2)CO1 (stereo unspecified),3.69
7,FC(F)(F)c1ccccc1C1=NC(c2ccccc2)CO1 (stereo unspecified),3.71
8,Clc1ccc(C2=NC(c3ccccc3)CO2)c(Cl)c1 (stereo unspecified),4.4
9,FC(F)(F)c1ccccc1-c1ncco1,2.15
10,Clc1ccc(Cl)c(C2=NC(c3ccccc3)CO2)c1 (stereo unspecified),4.4
11,Fc1cccc(F)c1C1=NC(c2ccccc2)CO1 (stereo unspecified),3.01
12,COc1cccc(C2=NC(c3ccccc3)CO2)c1 (stereo unspecified),3.77
13,c1ccc(Oc2ccccc2C2=NC(c3ccccc3)CO2)cc1 (stereo unspecified),5.61
14,O=[N+]([O-])c1ccccc1C1=NC(c2ccccc2)CO1 (stereo unspecified),2.83
15,CSc1ccccc1C1=NC(c2ccccc2)CO1 (stereo unspecified),3.5

# Tested on: Tetranychus urticae
# Assay: Ovicidal activity against Tetranychus urticae
# Format: functional
# Conditions: not given
row,Compound,LC50 [µg/mL]
1,Clc1ccc(C2=NC(c3ccccc3)CO2)cc1 (stereo unspecified),100
2,Fc1cccc(Cl)c1C1=NC(c2ccccc2)CO1 (stereo unspecified),0.01
3,Cc1cccc(C2=NC(c3ccccc3)CO2)c1 (stereo unspecified),> 1000
4,Clc1cccc(C2=NC(c3ccccc3)CO2)c1Cl (stereo unspecified),10
5,CCSc1ccccc1C1=NC(c2ccccc2)CO1 (stereo unspecified),100
6,Fc1ccccc1C1=NC(c2ccccc2)CO1 (stereo unspecified),10
7,COc1ccccc1C1=NC(c2ccccc2)CO1 (stereo unspecified),10
8,COc1ccc(C2=NC(c3ccccc3)CO2)cc1 (stereo unspecified),100
9,Clc1cccc(C2=NC(c3ccccc3)CO2)c1 (stereo unspecified),100
10,Cc1ccccc1C1=NC(c2ccccc2)CO1 (stereo unspecified),100
11,Brc1ccccc1C1=NC(c2ccccc2)CO1 (stereo unspecified),0.1
12,Ic1ccccc1C1=NC(c2ccccc2)CO1 (stereo unspecified),1
13,Clc1ccccc1C1=NC(c2ccccc2)CO1 (stereo unspecified),1
14,Cc1ccc(C2=NC(c3ccccc3)CO2)cc1 (stereo unspecified),> 1000
15,CCOc1ccccc1C1=NC(c2ccccc2)CO1 (stereo unspecified),> 1000
16,c1ccc(C2=NC(c3ccccc3)CO2)cc1 (stereo unspecified),10
17,Clc1cccc(Cl)c1C1=NC(c2ccccc2)CO1 (stereo unspecified),1
18,FC(F)(F)c1ccccc1C1=NC(c2ccccc2)CO1 (stereo unspecified),100
19,Clc1ccc(C2=NC(c3ccccc3)CO2)c(Cl)c1 (stereo unspecified),10
20,Clc1ccc(Cl)c(C2=NC(c3ccccc3)CO2)c1 (stereo unspecified),100
21,Fc1cccc(F)c1C1=NC(c2ccccc2)CO1 (stereo unspecified),1
22,COc1cccc(C2=NC(c3ccccc3)CO2)c1 (stereo unspecified),> 1000
23,c1ccc(Oc2ccccc2C2=NC(c3ccccc3)CO2)cc1 (stereo unspecified),100
24,O=[N+]([O-])c1ccccc1C1=NC(c2ccccc2)CO1 (stereo unspecified),100
25,CSc1ccccc1C1=NC(c2ccccc2)CO1 (stereo unspecified),100
